Experimental data from publication PMC12503906, “Novel Pyrazolo [1,5‐a]−1,3,5‐Triazine Derivatives as CDK7 Inhibitors: Synthesis and Biological Insights in Pancreatic Ductal Adenocarcinoma Models” (Chemmedchem, 2025).

Key:
[1] = tested on: PATU‐T; test: Wound healing assay, PATU‐T; type: cell-based; details: 1 × IC50 and 4 × IC50, 4 to 24 h
Protocol: The wound healing assay was used to test the migratory ability of the selected cells post‐treatment. Cells (5 × 10^4 /well) were seeded on 96‐well. After 24 h, cells reached the optimal 100% confluency, and an artificial wound was created with a 96‐well Pintool Scratcher. The cells were immediately washed with complete medium, in order to remove cell debris after the scratch, and images of the wells were captured at time 0 h, right before the addition of the treatment. Each drug (1b and 1g) was previously diluted in the respective medium at two different concentrations: 1 × IC50 and 4 × IC50 (according to the cell specific IC50 value) and were then added to the cells. Images were then taken at timepoints 4, 8, 20, and 24 h using the Leica microscope with a JAI TMC‐137 camera to assess wound closure. The images were analyzed using the Universal Grab 6.3 software (DCILabs), and the obtained data were used to determine the percentage of migration of the cells, using the following formula. (2) % Migration=Mean width of the wound atT=0−Mean width of the wound atT=X/Mean width of the wound atT=0×100

[2] = target: CDK7 (Homo sapiens, UniProt P50613); test: Kinase activity profiling, PamChip array, CDK7; type: cell-based; parameters: endogenous in cells; host or cells: PDAC3 primary cells; details: PDAC‐3 primary cells, IC50 concentration, 2 h, Pamgene array
Sequence of CDK7 (P50613 2-346 limits assumed): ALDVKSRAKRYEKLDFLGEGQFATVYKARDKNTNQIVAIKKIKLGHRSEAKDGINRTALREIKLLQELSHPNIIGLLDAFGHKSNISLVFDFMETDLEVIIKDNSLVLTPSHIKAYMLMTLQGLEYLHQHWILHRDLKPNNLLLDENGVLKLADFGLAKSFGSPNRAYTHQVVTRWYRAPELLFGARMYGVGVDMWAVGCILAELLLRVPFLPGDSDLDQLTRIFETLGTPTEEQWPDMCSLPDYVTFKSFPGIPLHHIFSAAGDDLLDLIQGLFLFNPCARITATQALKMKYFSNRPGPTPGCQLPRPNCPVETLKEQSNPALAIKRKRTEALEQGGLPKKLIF
Sequence of CDK7 (P51946 whole entry partner): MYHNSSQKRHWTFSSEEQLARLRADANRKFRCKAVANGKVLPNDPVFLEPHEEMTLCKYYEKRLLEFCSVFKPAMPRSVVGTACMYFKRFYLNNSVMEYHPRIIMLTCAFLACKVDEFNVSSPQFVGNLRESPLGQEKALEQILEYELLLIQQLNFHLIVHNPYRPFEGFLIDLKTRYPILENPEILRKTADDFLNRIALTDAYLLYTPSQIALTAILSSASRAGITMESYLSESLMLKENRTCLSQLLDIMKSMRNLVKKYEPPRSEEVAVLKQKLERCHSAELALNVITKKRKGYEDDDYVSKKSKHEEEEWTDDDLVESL
Sequence of CDK7 (P51948 whole entry partner): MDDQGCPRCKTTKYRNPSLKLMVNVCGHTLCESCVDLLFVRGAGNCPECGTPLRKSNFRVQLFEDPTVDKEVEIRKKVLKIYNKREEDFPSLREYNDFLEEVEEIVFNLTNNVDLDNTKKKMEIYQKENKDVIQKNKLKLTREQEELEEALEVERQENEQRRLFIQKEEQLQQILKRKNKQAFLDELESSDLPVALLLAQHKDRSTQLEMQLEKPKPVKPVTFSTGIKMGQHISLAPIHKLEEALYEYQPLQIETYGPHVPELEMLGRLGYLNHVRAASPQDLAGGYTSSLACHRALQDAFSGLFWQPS
Protocol: A Kinase activity profiling was conducted using a PamChip (Pamgene, s‐Hertogenbosch, The Netherlands) array containing 144 peptide substrates specific to tyrosine kinases to assess activity changes upon treatment with compounds 1b and 1g. Experiments were carried out in PDAC3 cells, using biological triplicates comprising three untreated controls and three samples treated for 2 h with either compound at their respective 1 × IC50 concentrations, following protocols adapted from previous studies.^[ [38] ^] Protein concentrations were quantified using the Bio‐Rad protein assay, which is based on the Bradford method (Bio‐Rad, Hercules, CA). For chip loading, protein lysates were adjusted to a final concentration of 10 µg per array and combined with PamGene MasterMix. During the assay, samples were circulated through the array at 30 °C with one cycle per minute over 60 cycles. Fluorescence data acquisition was performed using a 12‐bit CCD camera, capturing real‐time fluorescence intensities. End‐point spot intensities were analyzed using the open‐source software ScanAnalyze, with background normalization applied. Statistical comparisons were performed using student's t‐test in R (version 3.6.1), followed by false discovery rate (FDR) correction.

## Nc1ncnc2cc(-c3c[nH]c4ccc(Br)cc34)nn12 [Compound 1b, 7‐(5‐Bromo‐1H‐indol‐3‐yl)pyrazolo[1,5‐a][1,3,5]triazin‐4‐amine]
[1]
  inhibition of cell migration: greatest inhibitory effect
[2]
  inhibition of phosphorylation, CDK7 (decrease vs untreated controls): 70%
